Results: ChEMBL document CHEMBL1152154, “Bacterial translation inhibitors, 1-acylindazol-3-ols as anthranilic acid mimics” (2008)
Converted amounts (≈) assume the structure as drawn.

Assays:
Type in all cases: functional
[1] = system: Staphylococcus aureus; test: Antibacterial activity against Staphylococcus aureus UC9218
[2] = system: Staphylococcus aureus; test: Antibacterial activity against Staphylococcus aureus UC9218 in presence of 10% human serum
[3] = system: Staphylococcus aureus; test: Antibacterial activity against Staphylococcus aureus RN4220 at 100 uM by transcription-translation assay

`Cn1c(C(=O)n2[nH]c(=O)c3cc(Br)ccc32)cc2cccc(S(=O)(=O)c3ccccc3)c21` showed an MIC [1] of 2 µg/mL (≈ 3.92 µM) and an MIC [2] of 128 µg/mL.
For `Cn1c(C(=O)n2[nH]c(=O)c3cc(C#N)ccc32)cc2cccc(S(=O)(=O)c3ccccc3)c21`, the MIC [1] was 4 µg/mL (≈ 8.76 µM) and the MIC [2] was 64 µg/mL.
With `Cn1c(C(=O)n2[nH]c(=O)c3cc(C#N)ccc32)cc2ccccc21` the inhibition at 100 µM [3] was 49%, the MIC [1] was 64 µg/mL (≈ 202 µM) and the MIC [2] was over 128 µg/mL.
For `N#Cc1ccc2c(c1)c(=O)[nH]n2C(=O)c1cc2cccc(S(=O)(=O)c3ccccc3)c2[nH]1`, the MIC [1] was 16 µg/mL (≈ 36.2 µM) and the MIC [2] was over 128 µg/mL.
Molecule `N#Cc1ccc2c(c1)c(=O)[nH]n2C(=O)c1cncc(SCc2ccccc2)n1` has an inhibition at 100 µM [3] of 7%, an MIC [1] of over 128 µg/mL and an MIC [2] of over 128 µg/mL.
Molecule `O=C(c1cc(-c2ccccc2)on1)n1[nH]c(=O)c2cc(Br)ccc21` has an inhibition at 100 µM [3] of 42%, an MIC [1] of 16 µg/mL (≈ 41.6 µM) and an MIC [2] of over 128 µg/mL.
`N#Cc1ccc2c(c1)c(=O)[nH]n2C(=O)c1cc2ccccc2[nH]1` showed an inhibition at 100 µM [3] of 99%, an MIC [1] of 64 µg/mL (≈ 212 µM) and an MIC [2] of over 128 µg/mL.
`N#Cc1ccc2c(c1)c(=O)[nH]n2C(=O)c1cnc(SCc2ccccc2)cn1` showed an inhibition at 100 µM [3] of 22%, an MIC [1] of over 128 µg/mL and an MIC [2] of over 128 µg/mL.
For `O=C(c1cccc(S(=O)(=O)N2CCc3cc(Cl)ccc32)c1)n1[nH]c(=O)c2cc(Br)ccc21`, the inhibition at 100 µM [3] was 20%, the MIC [1] was 4 µg/mL (≈ 7.51 µM) and the MIC [2] was 128 µg/mL.
`CN(c1ccc(Cl)cc1)S(=O)(=O)c1cc(Br)cc(C(=O)n2[nH]c(=O)c3cc(Br)ccc32)c1` was tested, and the inhibition at 100 µM [3] was 29%, the MIC [1] was over 128 µg/mL and the MIC [2] was over 128 µg/mL.
Work on `O=C(c1cccc(S(=O)(=O)N2CCOCC2)c1)n1[nH]c(=O)c2cc(Br)ccc21` yielded an inhibition at 100 µM [3] of 3%, an MIC [1] of over 128 µg/mL and an MIC [2] of over 128 µg/mL.
Molecule `O=C(c1cccc(S(=O)(=O)N2CCOCC2)c1)n1[nH]c(=O)c2cc(Cl)ccc21` has an inhibition at 100 µM [3] of 5%, an MIC [1] of over 128 µg/mL and an MIC [2] of over 128 µg/mL.
`N#Cc1ccc2c(c1)c(=O)[nH]n2C(=O)c1cccc(S(=O)(=O)N2CCOCC2)c1` gave an inhibition at 100 µM [3] of 10%, an MIC [1] of 64 µg/mL (≈ 155 µM) and an MIC [2] of 64 µg/mL.
`CC(C)Sc1ccc(C(=O)n2[nH]c(=O)c3cc(Br)ccc32)cn1` gave an inhibition at 100 µM [3] of 49%, an MIC [1] of over 128 µg/mL and an MIC [2] of over 128 µg/mL.
`O=C(c1ccc(S(=O)(=O)N2CCc3cc(Cl)ccc32)cc1)n1[nH]c(=O)c2cc(Cl)ccc21` showed an inhibition at 100 µM [3] of 61%, an MIC [1] of 16 µg/mL (≈ 32.8 µM) and an MIC [2] of over 128 µg/mL.
Molecule `O=C(c1ccc(S(=O)(=O)N2CCc3cc(Cl)ccc32)cc1)n1[nH]c(=O)c2ccc(Cl)cc21` has an inhibition at 100 µM [3] of 86%, an MIC [1] of 8 µg/mL (≈ 16.4 µM) and an MIC [2] of over 128 µg/mL.
Molecule `O=C(c1cccc(S(=O)(=O)N2CCc3cc(Cl)ccc32)c1)n1[nH]c(=O)c2cc(C(F)(F)F)ccc21` has an inhibition at 100 µM [3] of 62%, an MIC [1] of 8 µg/mL (≈ 15.3 µM) and an MIC [2] of over 128 µg/mL.
`O=C(c1cccc(S(=O)(=O)N2CCc3cc(Cl)ccc32)c1)n1[nH]c(=O)c2ccc(Br)cc21` gave an inhibition at 100 µM [3] of 67%, an MIC [1] of 8 µg/mL (≈ 15 µM) and an MIC [2] of over 128 µg/mL.
`O=C(c1cccc(S(=O)(=O)N2CCc3ccccc32)c1)n1[nH]c(=O)c2cc(Br)ccc21` gave an inhibition at 100 µM [3] of 52%, an MIC [1] of 8 µg/mL (≈ 16.1 µM) and an MIC [2] of 128 µg/mL.
With `O=C(c1cncc(SCc2ccccc2)n1)n1[nH]c(=O)c2cc(Br)ccc21` the inhibition at 100 µM [3] was 28%, the MIC [1] was 32 µg/mL (≈ 72.5 µM) and the MIC [2] was over 128 µg/mL.
In the case of `O=C(c1cnc(SCc2ccccc2)cn1)n1[nH]c(=O)c2cc(Br)ccc21`, the inhibition at 100 µM [3] is reported as 5%, the MIC [1] is reported as over 128 µg/mL and the MIC [2] is reported as over 128 µg/mL.
For `O=C(c1cc2cccc(S(=O)(=O)c3ccccc3)c2[nH]1)n1[nH]c(=O)c2cc(Br)ccc21`, the MIC [1] was 16 µg/mL (≈ 32.2 µM) and the MIC [2] was 128 µg/mL.
With `N#Cc1ccc2c(c1)c(=O)[nH]n2C(=O)c1ccc(S(=O)(=O)N2CCc3cc(Cl)ccc32)cc1` the inhibition at 100 µM [3] was 5%, the MIC [1] was 64 µg/mL (≈ 134 µM) and the MIC [2] was over 128 µg/mL.
For `N#Cc1ccc2c(c1)c(=O)[nH]n2C(=O)c1cccc(S(=O)(=O)N2CCc3ccccc32)c1`, the inhibition at 100 µM [3] was 13%, the MIC [1] was 0.5 µg/mL (≈ 1.12 µM) and the MIC [2] was 8 µg/mL.
`O=C(c1ccc(S(=O)(=O)N2CCc3cc(Cl)ccc32)cc1)n1[nH]c(=O)c2cc(Br)ccc21` gave an inhibition at 100 µM [3] of 56%, an MIC [1] of 8 µg/mL (≈ 15 µM) and an MIC [2] of over 128 µg/mL.
`O=C(c1cccc(S(=O)(=O)N2CCc3cc(Cl)ccc32)c1)n1[nH]c(=O)c2ccc(Cl)cc21` was tested, and the inhibition at 100 µM [3] was 78%, the MIC [1] was 8 µg/mL (≈ 16.4 µM) and the MIC [2] was over 128 µg/mL.
Work on `O=C(c1cccc(S(=O)(=O)N2CCc3cc(Cl)ccc32)c1)n1[nH]c(=O)c2cc(Cl)ccc21` yielded an inhibition at 100 µM [3] of 80%, an MIC [1] of 4 µg/mL (≈ 8.19 µM) and an MIC [2] of 128 µg/mL.
`Cc1ccc2c(c1)c(=O)[nH]n2C(=O)c1cccc(S(=O)(=O)N2CCc3cc(Cl)ccc32)c1` showed an inhibition at 100 µM [3] of 49%, an MIC [1] of 16 µg/mL (≈ 34.2 µM) and an MIC [2] of over 128 µg/mL.
With `O=C(c1cccc(S(=O)(=O)N2CCc3cc(Cl)ccc32)c1)n1[nH]c(=O)c2cc(OC(F)(F)F)ccc21` the inhibition at 100 µM [3] was 78%, the MIC [1] was 4 µg/mL (≈ 7.44 µM) and the MIC [2] was over 128 µg/mL.
For `CN(c1ccc(Cl)cc1)S(=O)(=O)c1cccc(C(=O)n2[nH]c(=O)c3cc(Br)ccc32)c1`, the inhibition at 100 µM [3] was 55%, the MIC [1] was over 128 µg/mL and the MIC [2] was over 128 µg/mL.
